Measured values taken from patent publication US20110059977A1 (priority 2006, published 2011).
Converted amounts (≈) assume the structure as drawn. Where two headings read alike, the source gives them in different places.

Legend:
Mycobacterium bovis BCG [1] = assay: microbe, parasite or virus in culture; format: cell-based; details: for MIC: Mycobacterium tuberculosis variant bovis BCG, BCG, 144 h
Mycobacterium bovis BCG [2] = format: in vivo, C57B1/6 female mice; details: BCG-infected mice, 20 mg/kg/day intraperitoneally, 5 days
[3] = tested on: mc^2155 strain of M. smegmatis; assay: In vitro assays on Mycobacterium smegmatis (MIC, resazurin coloration microdilution method); format: cell-based
Experimental: All molecules to be tested are prepared in dimethylsulfoxide (DMSO) at a concentration of 50 mg/ml and frozen until use.
20 μl of each dilution for each molecule are prepared in 100 μl of the Dubos culture medium (Difco, USA), and then distributed into 96 well plates, at a concentration between 100-0.75 μg/ml.
Control wells containing DMSO alone and ethambutol (Etibi®, Myambutol®) or ofloxacine (synthesis antibiotic belonging to the fluoroquinolone family) are included at a concentration between […].
The plates are covered, sealed and incubated at 37° C. during 48 hours.
Minimal Inhibitory Concentrations (MIC) are determined using the resazurin coloration microdilution method. The powdery resazurin salt (Sigma) is prepared at a concentration of 0.01% (weight/vol) in distilled water, and the solution is then sterilized by 0.22 μm membrane filtration, and kept at 4° C. during one week.
Into the plates as incubated during 48 hours, 30 μl of a resazurin solution are added in each well. The plates are then incubated at 37° C. during 24 hours. The colour variation from blue to pink is indicative of a decrease in resazurin which corresponds to the development of the bacterial colony. The MIC is determined as being the lowest concentration to prevent a colour change. The optical density of each well is measured at 530-630 nm using a micro-plate reader, The MIC is determined by drawing the dose-optical density response curve.

M. tuberculosis H37Rv = assay: In vitro tests on Mycobacterium tuberculosis (MIC in 7H11 agar medium)
M. avium 101 = assay: In vitro tests on Mycobacterium avium (MIC in 7H11 agar medium); format: cell-based; details: for MIC: Mycobacterium avium, 101, read-out: MIC on Mycobacterium avium
Description: All tests are repeated three times.

M. smegmatis = details: cited from earlier work
[4] = read-out: Minimal Inhibitory Concentration MIC (μg/mL)
[5] = read-out: Minimal Inhibitory Concentration MIC (μmol/L)
[6] = Mycobacterium bovis BCG, 6 days at 37° C., 7H9 medium

Molecule | MIC (Mycobacterium bovis BCG [1]; [4]) | MIC (Mycobacterium bovis BCG [1]; [5]) | Activity against Mycobacterium bovis BCG in vitro (in words) (Mycobacterium bovis BCG [1]) | also measured
Nc1cc(=O)n2c3ccccc3c3ccnc1c32 | 10 µg/mL | 42.5 µmol/L |  | 
COc1ccc2c(c1)c1ccnc3ccc(=O)n2c31 [10-methoxy-canthin-6-one] | 7.5 µg/mL | 30 µmol/L |  | 
O=c1c2ccccc2c2nccc3c4ccccc4n1c32 [Benzo[e]canthin-6-one] | 2.5 to 5 µg/mL | 9.2 to 18.4 µmol/L | most active | 
O=c1ccc2nccc3c4ccccc4n1c23 [Canthin-6-one] | 7.5 µg/mL | 34.1 µmol/L | most active | In vivo antituberculous efficiency (number of bacteria in spleen, liver and lungs; in words) (Mycobacterium bovis BCG [2]): efficient; Efficiency against Mycobacterium smegmatis (in words) [3]: efficient; Efficiency against Mycobacterium tuberculosis (in words) (M. tuberculosis H37Rv): efficient; Activity against Mycobacterium bovis BCG in vitro (in words) (Mycobacterium bovis BCG [1]; listed as Canthin-5-one): surprising efficiency; Efficiency against Mycobacterium avium (in words) (M. avium 101): efficient
O=c1ccc2c3c(cc[n+]2CCBr)c2ccccc2n13.[Br-] [N-bromoéthyl-canthin-6-one bromide] | 1 to 5 µg/mL | 3 to 15.3 µmol/L | most active | 
O=c1c2ccccc2c2c3c(cc[n+]2[O-])c2ccccc2n13 [N-oxide-benzo[e]canthin-6-one] | 10 µg/mL | 34.8 µmol/L |  | 
O=c1ccc2c3c(cc[n+]2[O-])c2ccccc2n13 [N-oxide-canthin-6-one] | 2.5 to 5 µg/mL | 10.6 to 21.2 µmol/L | most active | 
O=c1c2nccnc2c2nccc3c4ccccc4n1c32 [Pyrazine[e]canthin-6-one] | 10 µg/mL | 36.8 µmol/L |  | 
NNC(=O)c1ccncc1 [isoniazide, reference compound] | 0.1 µg/mL | 0.73 µmol/L |  | Susceptibility of M. smegmatis (M. smegmatis; isoniazide 10 μg/mL): resistant; Minimal Inhibitory Concentration MIC (μg/mL) (Mycobacterium bovis BCG [1]; [6]): 0.1 µg/mL; MIC (M. avium 101): 0.1 µg/mL (≈ 0.729 µM)
CC1COc2c(N3CCN(C)CC3)c(F)cc3c(=O)c(C(=O)O)cn1c23 (stereo not shown) [ofloxacin] |  |  |  | MIC ([3]; Mycolicibacterium smegmatis, mc^2155 strain, Dubos medium, resazurin, read-out: MIC (CMI) on Mycobacterium smegmatis): 1 µg/mL (≈ 2.77 µM); MIC on Mycobacterium tuberculosis (M. tuberculosis H37Rv; H37Rv, 7H11 agar, 21-30 days at 37° C.): 1 µg/mL (≈ 2.77 µM); MIC (M. avium 101): 6.2 µg/mL (≈ 17.2 µM)
ethambutol [reference compound] |  |  |  | MIC (CMI) on Mycobacterium smegmatis ([3]; mc^2155 strain, Dubos medium, resazurin): 0.5 µg/mL; Susceptibility of M. smegmatis (M. smegmatis; ethambutol 5 μg/mL): reacts; Minimal Inhibitory Concentration MIC (μg/mL) (Mycobacterium bovis BCG [1]; [6]): 5 µg/mL; Minimal Inhibitory Concentration MIC (μmol/L) (Mycobacterium bovis BCG [1]; [6]): 24.5 µmol/L
